Test results taken from BindingDB's records for doi:10.7270/Q2ZW1JC6 (Nmmlsc, 2016).

target: Ras-related protein Rab-2A (Canis lupus familiaris, UniProt P61105); test: Rab2A fluorescent GTP competition potency – biochemical, pyrazoline series, Bodipy-FL-GTP, flow cytometry, multiplex, SAR follow-up (AID 2045)
Sequence (P61105 whole entry): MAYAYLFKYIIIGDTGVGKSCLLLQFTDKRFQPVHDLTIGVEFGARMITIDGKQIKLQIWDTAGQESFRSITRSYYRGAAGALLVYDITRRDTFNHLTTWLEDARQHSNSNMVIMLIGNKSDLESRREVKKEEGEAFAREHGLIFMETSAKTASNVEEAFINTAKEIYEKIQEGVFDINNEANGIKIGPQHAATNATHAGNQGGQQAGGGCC

Compound | EC50
COc1ccc(C2=NN(c3ccc(Cl)cc3)C(c3ccccc3F)C2)cc1 (stereo unspecified) [UNM-0000305863] | > 30 µM
COc1ccc(C2CC(c3ccc(F)cc3)=NN2c2ccccc2)cc1OC (stereo unspecified) [UNM-0000305864] | > 30 µM
CN(C)c1ccc(C2CC(c3ccc(F)cc3)=NN2c2ccccc2)cc1 (stereo unspecified) [UNM-0000305866] | > 30 µM
COc1ccc(C2CC(c3ccccc3)=NN2c2ccc(C(N)=O)cc2)cc1 (stereo unspecified) [UNM-0000305870] | > 30 µM
COc1ccc(C2CC(c3ccccc3)=NN2c2ccc(C(=O)O)cc2)cc1 (stereo unspecified) [UNM-0000306085] | > 30 µM
COc1ccc(C2CC(c3ccccc3F)=NN2c2ccc(S(N)(=O)=O)cc2)cc1 (stereo unspecified) [UNM-0000306110] | > 30 µM
COc1ccc(C2CC(c3ccccc3Br)=NN2c2ccc(S(N)(=O)=O)cc2)cc1 (stereo unspecified) [UNM-0000306112] | > 30 µM
COc1ccc(C2CC(c3cccc(Br)c3)=NN2c2ccc(S(N)(=O)=O)cc2)cc1 (stereo unspecified) [UNM-0000306113] | > 30 µM
COc1ccc(C2CC(c3cccc(Cl)c3)=NN2c2ccc(S(N)(=O)=O)cc2)cc1 (stereo unspecified) [UNM-0000306134] | > 30 µM
COc1ccc(C2CC(c3ccc(Br)cc3)=NN2c2ccc(S(N)(=O)=O)cc2)cc1 (stereo unspecified) [UNM-0000306138] | > 30 µM
NS(=O)(=O)c1ccc(N2N=C(c3ccccc3)CC2c2cccc(Br)c2)cc1 (stereo unspecified) [UNM-0000306147] | > 30 µM
Cc1ccccc1C1CC(c2ccccc2)=NN1c1ccc(S(N)(=O)=O)cc1 (stereo unspecified) [UNM-0000306148] | > 30 µM
COc1ccc(C2CC(c3ccccc3C)=NN2c2ccc(S(N)(=O)=O)cc2)cc1 (stereo unspecified) [UNM-0000306152] | > 30 µM
COc1ccc(C2CC(c3cccc(C)c3)=NN2c2ccc(S(N)(=O)=O)cc2)cc1 (stereo unspecified) [UNM-0000306153] | > 30 µM
NS(=O)(=O)c1ccc(N2N=C(c3ccccc3)CC2c2ccc(Br)cc2)cc1 (stereo unspecified) [UNM-0000306160] | > 30 µM
NS(=O)(=O)c1ccc(N2N=C(c3ccccc3)CC2c2cccc(Cl)c2)cc1 (stereo unspecified) [UNM-0000306161] | > 30 µM
